Earlier results, collected in US20030219387A1, “Local delivery of agents for disruption and inhibition of bacterial biofilm for treatment of periodontal disease” (priority 2000, published 2003).

Q: With `CC(=N)N1CC[C@H](Oc2ccc([C@H](Cc3ccc4ccc(C(=N)N)cc4c3)C(=O)O)cc2)C1` [DX-9065a] as the compound, how does the inhibition of gingipain (gingipain) read?
A: Its inhibition of gingipain is “can inhibit gingipain”.

Q: What about the “reduction of P. gingivalis growth” value (P. gingivalis) of the same compound?
A: Its value is “selectively reduces P. gingivalis growth”.
